Results published in paper PMC11923636, “Synthesis, Pharmacological Evaluation, and Molecular Modeling of Phthalimide Derivatives as Monoamine Oxidase and Cholinesterase Dual Inhibitors” (ACS Omega, 2025).
Where “and” joins values, the source holds several entries; their conditions need not be identical. Equal values may be shown once. Marks after values point to notes of the source that are not given here.

Experiments:
[1] = molecular target: Electrophorus electricus AChE (Electrophorus electricus, UniProt O42275); assay: biochemical; assay type: biochemical; conditions: for IC50: mean ± SEM, n = 3, read-out: IC50 (μM) ± SEM eeAChE; for SI = IC50 of BChE/IC50 of AChE: selectivity index
Protocol: (§1) The synthesized compounds were evaluated for their inhibition potential against cholinesterases (Electrophorus electricus AChE and equine serum lyophilized BChE).
(§2) The cholinesterase in vitro bioassay for the synthesized compounds was performed using already reported protocols.[29],[30] Ellman’s assay method was used to study the inhibition of Electrophorus electricus AChE and Equine Serum lyophilized BChE. Stock solutions of synthesized compounds were prepared in potassium phosphate buffer (pH 8.0). A sufficient amount of 5,5-dithio-bis-2-nitrobenzoic acid (DTNB, Ellman’s reagent), a stock solution of synthesized compounds, and 0.03 U/ml of the enzyme (AChE or BChE) were added to a 96-well plate and incubated at 30 °C for 10 min. Subsequently, 1 mM ATCI or BTCI was added, and the reaction mixture was incubated for 15 min. […] Sample concentration was plotted against inhibitory activity to obtain IC50 values.

[2] = molecular target: T1, equine serum lyophilized BChE (Equus caballus, UniProt P81908); assay: biochemical; conditions: mean ± SEM, n = 3; read-out: IC50 (μM) ± SEM eqBChE
T1 construct: Equine Serum lyophilized BChE; from tissue; host or cells: equine serum
Protocol: as §1, §2

[3] = molecular target: T2, human MAO-A (Homo sapiens, UniProt P21397); assay: Human MAO isoform inhibition assay (fluorometric), MAO-A; assay type: biochemical; conditions: mean ± SEM, n = 3; read-out: IC50 (μM) ± SEM hMAO-A
T2 sequence (P21397 1-527): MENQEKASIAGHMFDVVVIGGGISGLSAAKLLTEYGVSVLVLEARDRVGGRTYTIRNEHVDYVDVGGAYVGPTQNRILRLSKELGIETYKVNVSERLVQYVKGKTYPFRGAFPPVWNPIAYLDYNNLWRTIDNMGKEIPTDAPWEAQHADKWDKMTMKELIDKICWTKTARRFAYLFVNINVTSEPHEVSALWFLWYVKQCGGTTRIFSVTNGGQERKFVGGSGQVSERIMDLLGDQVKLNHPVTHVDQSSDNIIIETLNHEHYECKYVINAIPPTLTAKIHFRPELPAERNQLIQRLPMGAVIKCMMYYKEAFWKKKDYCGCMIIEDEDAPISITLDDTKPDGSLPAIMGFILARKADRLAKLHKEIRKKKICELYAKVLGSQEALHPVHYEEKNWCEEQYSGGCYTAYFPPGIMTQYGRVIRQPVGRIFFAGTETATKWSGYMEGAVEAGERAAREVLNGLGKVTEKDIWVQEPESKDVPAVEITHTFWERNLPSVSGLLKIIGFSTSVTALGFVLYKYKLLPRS
Protocol: (§3) The human MAO isoform assay was also carried out using a fluorescence-based assay protocol according to the reported literature.
(§4) Inhibitory activity of the synthesized compounds against MAO isoforms, specifically human MAO-A and MAO-B, was determined by using benzylamine and tyramine substrates in the dark (protected from light) in a 96-well plate by an already reported fluorometric method.[31],[32]

[4] = molecular target: T3, human MAO-B (Homo sapiens, UniProt P27338); assay: Human MAO isoform inhibition assay (fluorometric), MAO-B; assay type: biochemical; conditions: for IC50: mean ± SEM, n = 3, read-out: IC50 (μM) ± SEM hMAO-B; for SI (IC50 hMAO-A/IC50 hMAO-B): selectivity index
T3 sequence (P27338 1-520): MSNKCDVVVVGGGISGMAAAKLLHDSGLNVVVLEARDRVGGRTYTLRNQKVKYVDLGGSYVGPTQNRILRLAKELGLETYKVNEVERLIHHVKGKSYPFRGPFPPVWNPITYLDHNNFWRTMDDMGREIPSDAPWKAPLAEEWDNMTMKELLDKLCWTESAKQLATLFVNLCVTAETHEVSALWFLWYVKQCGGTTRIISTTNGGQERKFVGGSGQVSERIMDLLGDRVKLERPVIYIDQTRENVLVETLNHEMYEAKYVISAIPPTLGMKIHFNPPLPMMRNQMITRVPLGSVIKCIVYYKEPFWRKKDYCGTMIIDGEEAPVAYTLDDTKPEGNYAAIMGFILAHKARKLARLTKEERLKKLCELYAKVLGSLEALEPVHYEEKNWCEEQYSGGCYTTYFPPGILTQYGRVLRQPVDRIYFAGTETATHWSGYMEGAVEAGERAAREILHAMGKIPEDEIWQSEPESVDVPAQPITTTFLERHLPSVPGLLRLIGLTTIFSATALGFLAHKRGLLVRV
Protocol: as §3, §4

[5] = tested on: SH-SY5Y neuroblastoma cells; assay type: cell-based; conditions: MTT; for cytotoxicity on SH-SY5Y cells: 10, 20, 30, and 50 μM; for neurotoxicity on SH-SY5Y cells: higher concentrations (100 μM)
Protocol: To determine the biological safety of the synthesized compounds, we performed a cytotoxicity study using a human SH-SY5Y neuroblastoma cell line.
SH-SY5Y cells were cultured in 96-well plates (1 × 10^5 cells/well) in a medium containing fetal bovine serum (FBS), penicillin (100 U/ml), and streptomycin ([…]) at 37 °C and 5% CO2. […] Subsequently, synthesized compounds were added to cells, followed by the addition of 20 μL of MTT reagent (10 mg/mL) at the specified time. Plates were then incubated at 37 °C and 5% CO2, and purple color precipitate formation was observed by a microscope. Lastly, DMSO ([…]) was added to solubilize precipitates, and the plates were read at 570 nm to determine the cell viability. Results are expressed as percentage growth of cells, in which their viability is compared to control cells in the presence or absence of synthesized compounds and a standard. The following formula was utilized for the measurement of the % cell viability. [drawing 1]

[6] = in vitro; conditions: for Papp at 20 h: PAMPA, pH 7.4; for prediction of CNS penetration: class from PAMPA-BBB Pe
Protocol: A fundamental requirement for the effectiveness of anti-AD drugs is their capability to traverse the BBB (blood–brain barrier). […]
Briefly, synthesized compounds were first dissolved in DMSO (10 mM) that was further diluted by the addition of phosphate buffer ([…]) having a pH of 7.4. PBL dissolved in dodecane was used for coating the membranes of the donor plates. Then, the test compound (0.2 mL) was added to the plate, followed by PBS (0.2 mL; pH = 7.4) to the acceptor plate, which was further placed under the donor plate in order to form a “sandwich”. […] A UV plate reader was employed for the measurements of the drug concentration in donor, acceptor, and reference wells. The permeability (Pe) of the compounds was measured by using the following formula. [drawing 2]

[7] = molecular target: T4, mice brain MAO-B (Mus musculus, UniProt Q8BW75); assay: Ex vivo MAO-B inhibition reversibility time course; assay type: in vivo, ICR mice; conditions: single ip dose
T4 construct: from tissue; host or cells: ICR mouse brain homogenate pellet
T4 sequence (Q8BW75 1-520): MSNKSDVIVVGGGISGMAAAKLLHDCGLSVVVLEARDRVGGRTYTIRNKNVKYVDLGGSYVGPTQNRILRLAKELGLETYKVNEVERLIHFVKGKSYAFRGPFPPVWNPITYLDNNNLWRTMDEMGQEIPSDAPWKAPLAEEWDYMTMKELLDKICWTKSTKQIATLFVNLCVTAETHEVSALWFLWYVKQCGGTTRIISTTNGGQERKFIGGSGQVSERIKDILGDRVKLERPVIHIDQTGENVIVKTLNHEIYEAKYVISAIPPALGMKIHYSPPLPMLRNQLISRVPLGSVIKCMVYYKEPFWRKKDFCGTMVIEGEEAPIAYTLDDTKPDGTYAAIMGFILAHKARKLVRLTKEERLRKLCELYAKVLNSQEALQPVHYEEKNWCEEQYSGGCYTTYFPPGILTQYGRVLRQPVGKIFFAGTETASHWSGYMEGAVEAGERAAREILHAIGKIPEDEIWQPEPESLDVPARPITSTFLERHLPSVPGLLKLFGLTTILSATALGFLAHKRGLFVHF
Protocol: After the experiments, the animals were euthanized following Animal Euthanasia (AVMA Guidelines) guidelines to ensure humane treatment. Five groups of ICR mice were administered test samples by intraperitoneal injection, and the intact brains were excised and were then frozen for almost 1 h (−20 °C). Brain tissue ([…]) was suspended in sucrose (0.3 M) using a homogenizer (Ultra-Turrax T8; at 60 Hz for almost 70 s) and then subjected to centrifugation for 10 min at 1500 rpm (4 °C). 200 μL of supernatant was collected and centrifuged for 20 min at 15,000 rpm and 4 °C. Subsequently, the formed pellet was resuspended in KHPO4 solution (pH 7.2, 600 μL) and then subjected to 20 min centrifugation at 15,000 rpm and 4 °C. This process was repeated three times. Enzyme activity was determined using an Assay Kit (monoamine oxidase). […] The mice were then sacrificed at intervals ranging from 0.5 to 48 h.[34]

T1 sequence (P81908 whole entry): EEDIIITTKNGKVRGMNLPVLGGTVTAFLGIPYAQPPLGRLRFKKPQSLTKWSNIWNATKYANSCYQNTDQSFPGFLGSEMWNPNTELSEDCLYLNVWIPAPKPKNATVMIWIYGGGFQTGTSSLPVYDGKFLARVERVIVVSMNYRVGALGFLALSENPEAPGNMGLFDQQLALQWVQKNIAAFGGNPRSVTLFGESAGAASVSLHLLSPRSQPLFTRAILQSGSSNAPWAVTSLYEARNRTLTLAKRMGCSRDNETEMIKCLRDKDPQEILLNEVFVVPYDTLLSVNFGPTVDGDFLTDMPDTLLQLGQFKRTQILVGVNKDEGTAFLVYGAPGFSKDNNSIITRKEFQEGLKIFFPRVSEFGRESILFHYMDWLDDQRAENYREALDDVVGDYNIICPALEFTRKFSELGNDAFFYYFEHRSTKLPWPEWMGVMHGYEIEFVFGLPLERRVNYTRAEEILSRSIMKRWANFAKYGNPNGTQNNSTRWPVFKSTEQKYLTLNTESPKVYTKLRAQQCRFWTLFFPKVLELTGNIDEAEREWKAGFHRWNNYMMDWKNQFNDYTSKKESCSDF
Electrophorus electricus AChE, sequence (O42275 24-633): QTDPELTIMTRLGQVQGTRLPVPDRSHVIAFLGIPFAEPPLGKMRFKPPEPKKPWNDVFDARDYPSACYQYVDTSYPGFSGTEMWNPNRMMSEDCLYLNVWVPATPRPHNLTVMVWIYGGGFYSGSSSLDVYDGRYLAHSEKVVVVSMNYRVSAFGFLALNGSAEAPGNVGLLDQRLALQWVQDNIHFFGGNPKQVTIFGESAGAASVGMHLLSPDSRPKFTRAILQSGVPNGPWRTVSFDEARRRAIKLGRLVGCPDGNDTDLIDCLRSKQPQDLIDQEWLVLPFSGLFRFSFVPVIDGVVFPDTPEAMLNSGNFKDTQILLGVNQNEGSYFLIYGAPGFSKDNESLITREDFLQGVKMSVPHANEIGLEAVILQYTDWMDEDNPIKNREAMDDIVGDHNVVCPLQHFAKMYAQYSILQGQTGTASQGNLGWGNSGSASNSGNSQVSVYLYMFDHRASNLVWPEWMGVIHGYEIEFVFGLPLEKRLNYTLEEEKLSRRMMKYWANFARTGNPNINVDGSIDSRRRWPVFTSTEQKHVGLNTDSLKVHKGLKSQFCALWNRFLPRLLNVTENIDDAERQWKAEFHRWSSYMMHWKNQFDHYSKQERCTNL

| Compound | IC50 [1] | SI = IC50 of BChE/IC50 of AChE [1] | IC50 [2] | IC50 [3] | IC50 [4] | SI (IC50 hMAO-A/IC50 hMAO-B) [4] | cytotoxicity on SH-SY5Y cells [5] | neurotoxicity on SH-SY5Y cells [5] | Papp at 20 h [6] | prediction of CNS penetration [6] | activity of MAO-B recovered ([7]; after 5 h) | activity of MAO-B recovered ([7]; after 24 h) |
| --- | --- | --- | --- | --- | --- | --- | --- | --- | --- | --- | --- | --- |
| Cc1ccc(-c2ccc(CN3C(=O)c4ccccc4C3=O)cc2)cc1 [3a] | 3.16 ± 0.09 µM | 15 | 49.1 ± 1.36 µM | 19.3 ± 1.28 µM | 1.04 ± 0.03 µM | 18 | – | – | – | – | – | – |
| O=C1c2ccccc2C(=O)N1Cc1ccc(-c2ccc([N+](=O)[O-])cc2)cc1 [3c] | 0.94 ± 0.12 µM | 52 | 49.1 ± 1.39 µM | 19.4 ± 1.21 µM | 0.24 ± 0.01 µM | 80 | – | – | – | – | – | – |
| N#Cc1ccc(-c2ccc(CN3C(=O)c4ccccc4C3=O)cc2)cc1 [3d] | 9.21 ± 0.14 µM | 4 | 33.5 ± 1.09 µM | 28.8 ± 1.44 µM | 0.64 ± 0.03 µM | 45 | – | – | – | – | – | – |
| O=C1c2ccccc2C(=O)N1Cc1ccc(-c2ccc(C(F)(F)F)cc2)cc1 [3e] | 0.24 ± 0.01 µM | 26 | 6.29 ± 0.17 µM | 16.5 ± 0.66 µM | 0.11 ± 0.01 µM | 150 | No cytotoxicity | negligible neurotoxicity | 18.7 ± 1.12 ×10⁻⁶ cm/s | CNS+ ^b (“CNS+” (prediction of high BBB permeation); Pe (10^–6 cm/s) > 4.39) | 50% | ~95% |
| O=C1c2ccccc2C(=O)N1Cc1ccc(-c2cccc(C(F)(F)F)c2)cc1 [3f] | 4.48 ± 0.11 µM | 4 | 17 ± 1.04 µM | 11.3 ± 0.2 µM | 0.09 µM and 0.091 µM | 124 | No cytotoxicity | negligible neurotoxicity | 18.3 ± 1.27 ×10⁻⁶ cm/s | CNS+ (“CNS+” (prediction of high BBB permeation); Pe (10^–6 cm/s) > 4.39) | – | ~80% |
| N#CCc1ccc(-c2ccc(CN3C(=O)c4ccccc4C3=O)cc2)cc1 [3g] | 13.43 ± 0.08 µM | 7 | 99.1 ± 1.21 µM | 5.44 ± 0.16 µM | 0.78 ± 0.04 µM | 7 | – | – | – | – | – | – |
| Cc1cc(C)cc(-c2ccc(CN3C(=O)c4ccccc4C3=O)cc2)c1 [3h] | 0.73 ± 0.04 µM | 40 | 29.6 ± 1.16 µM | 75.1 ± 1.25 µM | 0.64 ± 0.02 µM | 117 | – | – | – | – | – | – |
| Cc1cc(C)c(-c2ccc(CN3C(=O)c4ccccc4C3=O)cc2)c(C)c1 [3i] | 0.88 ± 0.05 µM | 56 | 49.2 ± 1.11 µM | 50.9 ± 1.42 µM | 0.71 ± 0.04 µM | 71 | – | – | – | – | – | – |
